{
  "source": "patent US9259408B2",
  "about": "“Use of DHA, EPA or DHA-derived EPA for treating a pathology associated with cellular oxidative damage” (Brudy Technology S.L., priority 2005, dated 2016)",
  "key": {"[1]": {"system": "Foreskin cells (undifferentiated epidermal fibroblasts, CRL-2076)", "assay": "ROS generation in Foreskin cells under xanthine/xanthine oxidase oxidative stress (CDCFDA)", "type": "cell-based, human", "conditions": "100 μM Vitamin E", "method": "(§1) The cellular models used were Foreskin cells (undifferentiated epidermal fibroblasts, CRL-2076) and ARPE-19 cells (retina pigmentary epithelial cells, CRL-2302) obtained from the American Type Culture Collection. The cell cultures were kept in suitable growth conditions of temperature (37° C.), CO2 concentration (5%) and humidity (95%) in an incubator specially designed for this purpose. The ARPE-19 cells were maintained in growth up to confluence of 0.3×10^4 cells/cm^2 in culture flasks with DMEM-F12 medium (Biological Industries) supplemented with 10% bovine foetal serum, penicillin antibiotics (100 U/mL), streptomycin (100 μg/mL) and glutamine (Biological Industries). […]\n(§2) The ROS level was measured in primary cultures of human skin CRL-2076 fibroblasts and in ARPE-19 retinal epithelial cells by employing the fluorimetric technique using dihydrorodamine 123 (DHR123, Molecular Probes) and 2,7-dichlorofluorescein diacetate (H2DCFDA, Molecular Probes) as fluorescent probes in a continuous system measuring every 30 min until 180 minutes. […] The fluorescence of the oxidised probes (2,7-dichlorofluorescein and rodamine 123) was measured in a Mithras fluorescence reader at an excitation wavelength of 488 nm and an emission wavelength of 525 nm in function of the time. […]"}, "[2]": {"system": "ARPE-19 cells (retina pigmentary epithelial cells, CRL-2302)", "assay": "ROS generation in ARPE-19 cells under AAPH oxidative stress (DHR123/H2DCFDA)", "type": "cell-based", "method": "as §1, §2"}, "Foreskin cells [3]": {"system": "Foreskin cells", "assay": "Lipidic peroxides (TBARS/MDA) in Foreskin cells", "type": "cell-based, human", "conditions": "40 mM AAPH; 50 μM DHA-TG", "method": "The measurement of malonildialdehyde (MDA) on cell lysates was used as a marker of lipidic peroxidation by UV-Vis spectrophotometry. The MDA and the 4-hydroxyalkenals (HAE) are products derived from the peroxidation of polyunsaturated fatty acids and related esters. Direct measurements of these aldehydes constitutes a convenient index of lipidic peroxidation. A chromogenic reagent (N-methyl-2-phenyl-indole in acetonitrile) which reacts with the MDA at 45° C. was employed, using the commercial lipidic peroxidation kit from Calbiochem (No. 437634). The condensation of one molecule of MDA with two molecules of the chromogenic reagent gives a stable chromophore with maximum absorbance at 586 nm, with the detection limit being 0.1 μM. The induction was carried out for 6 h with 40 mM AAPH and 24 hours of latency. The cells (10^7 cells/mL) were lysed by means of cycles of freezing and thawing in liquid N2. The samples were fractionated in order to measure MDA and protein. The results were expressed in μM of MDA/mg of protein."}, "Foreskin cells [4]": {"system": "Foreskin cells", "assay": "Superoxide anion generation (luminol chemiluminescence) in Foreskin cells", "type": "cell-based, human", "conditions": "40 mM AAPH, with or without DHA; 10 mM Tyron or 0.1875 UA/μl exogenous SOD", "method": "Direct measurement of the superoxide anion was carried out by means of the chemiluminescence technique on microplate measured by luminol (Calbiochem, No. 574590). Chemiluminescence for detecting the superoxide anion is a technique used due to its potential for gaining access to all the intracellular sites of superoxide generation, due to the high specificity of the reaction with luminol, the minimal intracellular toxicity and the increased sensitivity in relation to other chemical techniques. It is based on the superoxide anion oxidising luminol in a reaction that produces photons of light which are quickly measured on a standard illuminometer. In our tests we used a chemiluminescence reader on microplate from ELISA, MITHRAS and furthermore, given the short half-life of the radical, an enhancer was used to increase the sensitivity of the test and amplify the response. […] The chemiluminescence measurement in the cells submitted to the AAPH oxidative stress inducing treatment was analysed every […] for a total time of 4100 seconds, at a frequency of 120 sec/cycle. […]"}},
  "data": [
    {"molecule": "vitamin E [reference compound]", "values": [
      {"measurement": "inhibition of cellular oxidation", "setting": "[1]", "value": 30, "unit": "%"}
    ]},
    {"molecule": "CCCCS(=N)(=O)CCC(N)C(=O)O", "note": "(stereo not shown) [BSO, Buthionine sulfoximine, reference compound]", "values": [
      {"measurement": "effect of addition of BSO on the protective effect of DHA", "setting": "[2]", "value": "eliminates the protective effect of DHA"}
    ]},
    {"molecule": "CC/C=C\\C/C=C\\C/C=C\\C/C=C\\C/C=C\\C/C=C\\CCC(=O)O", "note": "[DHA, docosahexaenoic acid]", "values": [
      {"measurement": "protection against lipidic peroxides (TBARS)", "setting": "Foreskin cells [3]", "value": 48, "unit": "%"}
    ]},
    {"molecule": "O=S(=O)(O)c1cc(O)c(O)c(S(=O)(=O)O)c1", "note": "[Tyron, 4,5-dihydroxy-1,3-benzene disulphonic acid, reference compound]", "values": [
      {"measurement": "production of superoxide anion in cells stressed with AAPH", "setting": "Foreskin cells [4]", "value": "totally inhibited"}
    ]}
  ]
}
